Laboratory results: US8153784B2, “Imaging of enzyme activity” (The General Hospital Corporation, priority 2004, dated 2012)

Assays:
[1] = target: T1, endogenous mouse MPO (Mus musculus, UniProt P11247); assay: LPS induced myositis, MR imaging at 4.7 T; format: in vivo; conditions: mice with LPS induced myositis
T1 construct: endogenous in cells; host or cells: inflammatory cells recruited by LPS in C57BL6 male mice (Matrigel site in the thigh, or flank muscle myositis)
T1 sequence (P11247 139-718): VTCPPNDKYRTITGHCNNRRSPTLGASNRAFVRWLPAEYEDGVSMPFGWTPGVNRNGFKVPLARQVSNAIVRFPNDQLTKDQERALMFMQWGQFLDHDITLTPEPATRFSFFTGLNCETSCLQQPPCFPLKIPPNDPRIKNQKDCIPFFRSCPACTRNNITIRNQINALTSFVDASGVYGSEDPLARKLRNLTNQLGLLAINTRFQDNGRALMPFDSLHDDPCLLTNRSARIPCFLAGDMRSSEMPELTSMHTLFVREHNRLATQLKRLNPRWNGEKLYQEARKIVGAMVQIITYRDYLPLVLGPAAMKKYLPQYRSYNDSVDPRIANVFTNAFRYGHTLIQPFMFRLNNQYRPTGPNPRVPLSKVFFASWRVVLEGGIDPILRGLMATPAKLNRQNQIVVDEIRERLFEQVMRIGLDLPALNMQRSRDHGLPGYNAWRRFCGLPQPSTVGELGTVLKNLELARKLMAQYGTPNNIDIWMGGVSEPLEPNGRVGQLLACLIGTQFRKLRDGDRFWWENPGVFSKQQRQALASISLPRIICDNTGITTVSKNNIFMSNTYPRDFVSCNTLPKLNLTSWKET
Procedure: (§1) The MR imaging experiments were performed on a 1.5 T GE Excite scanner and a 4.7 T Bruker Pharmascan scanner. For all MR imaging experiments, precontrast T2-(TR=2000, TE=100, ETL=8, NEX=4, fast spin echo sequence) and T1-weighted images (TR=500, TE=11, NEX=4, spin echo sequence) with fat saturation were initially performed to locate the gels or area of inflammation. The substrates (0.3 mmol/kg) were subsequently injected via the tail vein of the mouse. The mouse was immediately imaged after the injection of the contrast agent using multiple T1-weighted sequences with fat saturation for at least 3 hours.
(§2) Ten-week old C57BL6 male mice were obtained from Jackson Laboratories. A total of 22 mice were used for the study. • 1. MPO/Matrigel imaging experiments: Matrigel™ (Beckton-Dickinson), a […] basement membrane matrix gel was used to immobilize human MPO and glucose oxidase (to supply H2O2 required for detecting MPO oxidative activity, Calbiochem). This was chosen to reflect deposits of human MPO in inflamed tissue in a mouse model. 400 μL of a mixture of Matrigel™ and MEM (Cambrex) was injected slowly into the thighs of each mouse one hour prior to imaging. The right thigh mixture also contained 15 U of MPO and 4 U of glucose oxidase (Calbiochem), while the left thigh mixture contained no enzyme and thus serves as an internal control. […]

[2] = target: T2, human myeloperoxidase (MPO) (Homo sapiens, UniProt P05164); assay: Pseudo-first-order rate constants of MPO-mediated conversion (relaxation times over time, 0.47 T); format: biochemical
T2 construct: purchased BioDesign Inc
Procedure: Kinetics of the samples were observed by measuring T1 and T2 at 0.47 T and 40° C. of the samples over at least a 24 hour period. At different time points, 1 M of sodium azide (final concentration=0.17 M) was added to stop the enzyme mediated reaction. The resultant progress curve was fitted with an empirical mathematical model and analyzed according to the Guggenheim method to obtain the pseudo-first-order rate constants (Guggenheim E A. Philos. Mag. 1926; 2:538).
An important property of a suitable substrate for an enzyme is the kinetics of enzymatic reaction. To determine the utility of the paramagnetic complexes as suitable substrates for human myeloperoxidase (MPO), we measured the pseudo-first-order rate constant of these substrates in MPO, and compared to the same substrates' reactions in Horse Radish Peroxidase (HRP) by monitoring the changes in relaxation time over time. […] The results shown were obtained using T1 measurements. T2 measurements yielded nearly identical results. The results are presented as mean±SD. N/A=not applicable.

[3] = target: T1, endogenous mouse MPO; assay: LPS/Matrigel experiments, MR imaging; format: in vivo; conditions: mice; LPS/Matrigel right vs Matrigel left
Procedure: as §1, §2

T2 sequence (P05164 279-745 limits assumed): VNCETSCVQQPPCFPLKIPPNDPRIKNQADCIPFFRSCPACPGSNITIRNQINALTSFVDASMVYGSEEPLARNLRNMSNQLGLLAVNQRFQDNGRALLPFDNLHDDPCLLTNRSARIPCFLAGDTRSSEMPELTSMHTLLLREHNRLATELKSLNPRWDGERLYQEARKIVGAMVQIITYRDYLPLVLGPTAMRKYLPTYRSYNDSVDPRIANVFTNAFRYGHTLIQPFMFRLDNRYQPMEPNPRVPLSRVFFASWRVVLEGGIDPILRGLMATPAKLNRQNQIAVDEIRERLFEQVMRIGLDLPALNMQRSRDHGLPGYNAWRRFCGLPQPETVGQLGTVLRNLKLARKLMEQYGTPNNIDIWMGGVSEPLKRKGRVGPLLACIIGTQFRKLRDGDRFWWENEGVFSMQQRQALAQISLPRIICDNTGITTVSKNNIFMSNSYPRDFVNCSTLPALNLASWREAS
T2 sequence (P05164 165-273 limits assumed): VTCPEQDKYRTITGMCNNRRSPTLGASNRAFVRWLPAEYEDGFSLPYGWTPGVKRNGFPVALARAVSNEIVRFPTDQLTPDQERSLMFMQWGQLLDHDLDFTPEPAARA

Row | SMILES | enhancement at 50 minutes after injection [1] | fraction of the final relaxation rate obtained within the first 5 minutes [2] | Pseudo first-order rate constant ([2]; from T1 measurements, mean±SD) [s⁻¹] | increased enhancement on the MPO side [3] [fold]
1 | CC(C(=O)NCC(=O)NCCc1c[nH]c2ccc(O)cc12)N1CCN(CC(=O)[O-])CCN(CC(=O)[O-])CCN(CC(=O)[O-])CC1.[Gd+3] (stereo not shown) [5-HT-DOTA(Gd), Glycylmethyl DOTA(Gd) 5-Hydroxytryptamide] | still significant enhancement | more than 80% | 0.0063 | –
2 | O=C([O-])CN(CCN(CC(=O)[O-])CC(=O)NCCc1c[nH]c2ccc(O)cc12)CCN(CC(=O)[O-])CC(=O)NCCc1c[nH]c2ccc(O)cc12.[Gd+3] [2Gd^3+] | – | – | – | 1.3
